Measured values reported in patent US11655217B2, “Pyrazole MAGL inhibitors” (H. Lundbeck A/S, priority 2017, dated 2023).

How the values were obtained:
MAGL = MAGL (Mus musculus (Mouse), UniProt O35678); assay: Mouse brain proteomes from inhibitor treated mice (oral gavage, sacrificed 4 h after administration, ABPP analysis); settings: 5 mg/kg oral gavage
Experimental: (§1) Preparation of Mouse Brain Proteomes from Inhibitor Treated Mice.
(§2) Inhibitors were administered to wild-type C57Bl/6J by oral gavage in a vehicle of polyethylene glycol.

FAAH = FAAH (Mus musculus (Mouse), UniProt O08914); assay: Mouse brain proteomes from inhibitor treated mice (oral gavage, sacrificed 4 h after administration, ABPP analysis), FAAH; settings: 5 mg/kg oral gavage
Chain of FAAH (O08914 whole entry): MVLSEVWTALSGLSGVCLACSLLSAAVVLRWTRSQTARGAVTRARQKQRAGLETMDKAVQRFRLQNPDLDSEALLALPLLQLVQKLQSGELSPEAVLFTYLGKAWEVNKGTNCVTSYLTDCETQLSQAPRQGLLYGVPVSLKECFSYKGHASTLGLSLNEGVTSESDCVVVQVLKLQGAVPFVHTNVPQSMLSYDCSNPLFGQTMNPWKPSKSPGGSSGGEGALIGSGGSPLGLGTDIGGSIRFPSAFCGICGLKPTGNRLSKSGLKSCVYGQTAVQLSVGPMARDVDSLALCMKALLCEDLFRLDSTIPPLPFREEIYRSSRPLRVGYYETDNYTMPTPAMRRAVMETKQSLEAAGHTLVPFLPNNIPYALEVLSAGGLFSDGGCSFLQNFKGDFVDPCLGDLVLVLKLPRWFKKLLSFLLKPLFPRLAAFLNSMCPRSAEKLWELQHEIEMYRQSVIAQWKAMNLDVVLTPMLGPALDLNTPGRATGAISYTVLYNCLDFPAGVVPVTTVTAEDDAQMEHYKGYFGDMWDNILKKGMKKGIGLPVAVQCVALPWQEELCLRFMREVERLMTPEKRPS
Experimental: as §1, §2

Chain of MAGL (O35678 whole entry): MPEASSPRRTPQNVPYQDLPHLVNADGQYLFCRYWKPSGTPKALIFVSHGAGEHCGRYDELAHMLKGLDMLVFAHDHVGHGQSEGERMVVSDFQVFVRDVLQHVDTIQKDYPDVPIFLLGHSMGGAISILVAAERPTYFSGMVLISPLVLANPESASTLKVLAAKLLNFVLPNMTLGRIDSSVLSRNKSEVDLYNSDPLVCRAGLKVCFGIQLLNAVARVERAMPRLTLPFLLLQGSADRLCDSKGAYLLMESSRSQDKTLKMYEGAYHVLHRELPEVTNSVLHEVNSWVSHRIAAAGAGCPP

For `O=C(O)c1ccn(C(=O)N2CCN(Cc3cccc(Oc4ccc(Cl)cc4)c3)CC2)n1` [Example 98, 1-(4-(3-(4-chlorophenoxy)benzyl)piperazine-1-carbonyl)-1H-pyrazole-3-carboxylic acid], the “MAGL % inh. 5 mg/kg (mouse)” value (MAGL) was “D (% inhibition is greater than or equal to 0% and less than 25%)” and the “FAAH % inh. 5 mg/kg (mouse)” value (FAAH) was “D (% inhibition is greater than or equal to 0% and less than 25%)”.
In the case of `O=C(O)c1ccn(C(=O)N2CCN(Cc3ccc(C(F)(F)F)cc3N3CCCCC3)CC2)n1` [Example 100, 1-(4-(2-(piperidin-1-yl)-4-(trifluoromethyl)benzyl)piperazine-1-carbonyl)-1H-pyrazole-3-carboxylic acid], the “MAGL % inh. 5 mg/kg (mouse)” value (MAGL) is reported as “D (% inhibition is greater than or equal to 0% and less than 25%)” and the “FAAH % inh. 5 mg/kg (mouse)” value (FAAH) is reported as “D (% inhibition is greater than or equal to 0% and less than 25%)”.
In the case of `O=C(O)c1ccn(C(=O)N2CCN(Cc3ccc(C(F)(F)F)cc3N3CC[C@@H](F)C3)CC2)n1` [Example 101, (R)-1-(4-(2-(3-fluoropyrrolidin-1-yl)-4-(trifluoromethyl)benzyl)piperazine-1-carbonyl)-1H-pyrazole-3-carboxylic acid], the “MAGL % inh. 5 mg/kg (mouse)” value (MAGL) is reported as “D (% inhibition is greater than or equal to 0% and less than 25%)” and the “FAAH % inh. 5 mg/kg (mouse)” value (FAAH) is reported as “D (% inhibition is greater than or equal to 0% and less than 25%)”.
In the case of `C[C@H]1CCCN1c1cc(C(F)(F)F)ccc1CN1CCN(C(=O)n2ccc(C(=O)O)n2)CC1` [Example 104, (S)-1-(4-(2-(2-methylpyrrolidin-1-yl)-4-(trifluoromethyl)benzyl)piperazine-1-carbonyl)-1H-pyrazole-3-carboxylic acid], the “MAGL % inh. 5 mg/kg (mouse)” value (MAGL) is reported as “D (% inhibition is greater than or equal to 0% and less than 25%)” and the “FAAH % inh. 5 mg/kg (mouse)” value (FAAH) is reported as “D (% inhibition is greater than or equal to 0% and less than 25%)”.
For `O=C(O)c1ccn(C(=O)N2CCN(Cc3ccc(Cl)cc3N3C4CCC3COC4)CC2)n1` [Example 105, 1-(4-(2-(3-oxa-8-azabicyclo[3.2.1]octan-8-yl)-4-chlorobenzyl)piper-azine-1-carbonyl)-1H-pyrazole-3-carboxylic acid], the “MAGL % inh. 5 mg/kg (mouse)” value (MAGL) was “D (% inhibition is greater than or equal to 0% and less than 25%)” and the “FAAH % inh. 5 mg/kg (mouse)” value (FAAH) was “D (% inhibition is greater than or equal to 0% and less than 25%)”.
For `O=C(O)c1ccn(C(=O)N2CCN(Cc3ccc(C(F)(F)F)cc3N3CC4COCC4C3)CC2)n1` (stereo not drawn) [Example 106, 1-(4-(2-(tetrahydro-1H-furo[3,4-c]pyrrol-5(3H)-yl)-4-(trifluoromethyl)benzyl)piperazine-1-carbonyl)-1H-pyrazole-3-carboxylic acid], the “MAGL % inh. 5 mg/kg (mouse)” value (MAGL) was “D (% inhibition is greater than or equal to 0% and less than 25%)” and the “FAAH % inh. 5 mg/kg (mouse)” value (FAAH) was “D (% inhibition is greater than or equal to 0% and less than 25%)”.
For `O=C(O)c1ccn(C(=O)N2CCN(Cc3ccc(Cl)cc3N3CCCC3)CC2)n1` [Example 107, 1-(4-(4-chloro-2-(pyrrolidin-1-yl)benzyl)piperazine-1-carbonyl)-1H-pyrazole-3-carboxylic acid], the “MAGL % inh. 5 mg/kg (mouse)” value (MAGL) was “D (% inhibition is greater than or equal to 0% and less than 25%)” and the “FAAH % inh. 5 mg/kg (mouse)” value (FAAH) was “D (% inhibition is greater than or equal to 0% and less than 25%)”.
For `CC(C)(O)C1CCN(c2cc(C(F)(F)F)ccc2CN2CCN(C(=O)n3ccc(C(=O)O)n3)CC2)CC1` [Example 109, 1-(4-(2-(4-(2-hydroxypropan-2-yl)piperidin-1-yl)-4-(trifluoromethyl)benzyl)piperazine-1-carbonyl)-1H-pyrazole-3-carboxylic acid], the “MAGL % inh. 5 mg/kg (mouse)” value (MAGL) was “D (% inhibition is greater than or equal to 0% and less than 25%)” and the “FAAH % inh. 5 mg/kg (mouse)” value (FAAH) was “D (% inhibition is greater than or equal to 0% and less than 25%)”.
For `O=C(O)c1ccn(C(=O)N2CCN(Cc3ccc(Cl)cc3N3CC4COCC4C3)CC2)n1` (stereo not drawn) [Example 111, 1-(4-(4-chloro-2-(tetrahydro-1H-furo[3,4-c]pyrrol-5(3H)-yl)benzyl)piperazine-1-carbonyl)-1H-pyrazole-3-carboxylic acid], the “MAGL % inh. 5 mg/kg (mouse)” value (MAGL) was “D (% inhibition is greater than or equal to 0% and less than 25%)” and the “FAAH % inh. 5 mg/kg (mouse)” value (FAAH) was “D (% inhibition is greater than or equal to 0% and less than 25%)”.
With `NC(=O)C1CCN(c2cc(C(F)(F)F)ccc2CN2CCN(C(=O)n3ccc(C(=O)O)n3)CC2)CC1` [Example 113, 1-(4-(2-(4-carbamoylpiperidin-1-yl)-4-(trifluoromethyl)benzyl)piperazine-1-carbonyl)-1H-pyrazole-3-carboxylic acid] the “MAGL % inh. 5 mg/kg (mouse)” value (MAGL) was “D (% inhibition is greater than or equal to 0% and less than 25%)” and the “FAAH % inh. 5 mg/kg (mouse)” value (FAAH) was “D (% inhibition is greater than or equal to 0% and less than 25%)”.
`CC1CCC(C)N1c1cc(C(F)(F)F)ccc1CN1CCN(C(=O)n2ccc(C(=O)O)n2)CC1` (stereo not drawn) [Example 114, 1-(4-(2-(2,5-dimethylpyrrolidin-1-yl)-4-(trifluoromethyl)benzyl)piperazine-1-carbonyl)-1H-pyrazole-3-carboxylic acid] was tested, and the “MAGL % inh. 5 mg/kg (mouse)” value (MAGL) was “D (% inhibition is greater than or equal to 0% and less than 25%)” and the “FAAH % inh. 5 mg/kg (mouse)” value (FAAH) was “D (% inhibition is greater than or equal to 0% and less than 25%)”.
`O=C(O)c1ccn(C(=O)N2CC3CN(Cc4cccc(Oc5ccc(Cl)cc5)c4)CC3C2)n1` (stereo not drawn) [Example 116, 1-(5-(3-(4-chlorophenoxy)benzyl)octahydro-pyrrolo[3,4-c]pyrrole-2-carbonyl)-1H-pyrazole-3-carboxylic acid] was tested, and the “MAGL % inh. 5 mg/kg (mouse)” value (MAGL) was “D (% inhibition is greater than or equal to 0% and less than 25%)” and the “FAAH % inh. 5 mg/kg (mouse)” value (FAAH) was “D (% inhibition is greater than or equal to 0% and less than 25%)”.
With `O=C(O)c1ccn(C(=O)N2CCN(Cc3ccc(C(F)(F)F)cc3N3C4CCC3COC4)CC2)n1` [Example 118, 1-(4-(2-(3-oxa-8-azabicyclo[3.2.1]octan-8-yl)-4-(trifluoromethyl)benzyl)piperazine-1-carbonyl)-1H-pyrazole-3-carboxylic acid] the “MAGL % inh. 5 mg/kg (mouse)” value (MAGL) was “D (% inhibition is greater than or equal to 0% and less than 25%)” and the “FAAH % inh. 5 mg/kg (mouse)” value (FAAH) was “D (% inhibition is greater than or equal to 0% and less than 25%)”.
For `CC(=O)NC1CCN(c2cc(C(F)(F)F)ccc2CN2CCN(C(=O)n3ccc(C(=O)O)n3)CC2)CC1` [Example 119, 1-(4-(2-(4-acetamidopiperidin-1-yl)-4-(trifluoromethyl)benzyl)piperazine-1-carbonyl)-1H-pyrazole-3-carboxylic acid], the “MAGL % inh. 5 mg/kg (mouse)” value (MAGL) was “D (% inhibition is greater than or equal to 0% and less than 25%)” and the “FAAH % inh. 5 mg/kg (mouse)” value (FAAH) was “D (% inhibition is greater than or equal to 0% and less than 25%)”.
With `O=C(O)c1ccn(C(=O)N2CCN(Cc3ccc(C(F)(F)F)cc3N3CCC(O)CC3)CC2)n1` [Example 120, 1-(4-(2-(4-hydroxypiperidin-1-yl)-4-(trifluoromethyl)benzyl)piperazine-1-carbonyl)-1H-pyrazole-3-carboxylic acid] the “MAGL % inh. 5 mg/kg (mouse)” value (MAGL) was “D (% inhibition is greater than or equal to 0% and less than 25%)” and the “FAAH % inh. 5 mg/kg (mouse)” value (FAAH) was “D (% inhibition is greater than or equal to 0% and less than 25%)”.
For `O=C(O)c1ccn(C(=O)N2CCC(Oc3ccc(Cl)c(N4CCCC4)c3)CC2)n1` [Example 121, 1-(4-(4-chloro-3-(pyrrolidin-1-yl)phenoxy)piperidine-1-carbonyl)-1H-pyrazole-3-carboxylic acid], the “MAGL % inh. 5 mg/kg (mouse)” value (MAGL) was “D (% inhibition is greater than or equal to 0% and less than 25%)” and the “FAAH % inh. 5 mg/kg (mouse)” value (FAAH) was “D (% inhibition is greater than or equal to 0% and less than 25%)”.
With `O=C(O)c1ccn(C(=O)N2CC3CN(Cc4ccc(N5CCCC5)cc4C(F)(F)F)CC3C2)n1` (stereo not drawn) [Example 123, 1-(5-(4-(pyrrolidin-1-yl)-2-(trifluoromethyl)benzyl)octahydro-pyrrolo[3,4-c]pyrrole-2-carbonyl)-1H-pyrazole-3-carboxylic acid] the “MAGL % inh. 5 mg/kg (mouse)” value (MAGL) was “D (% inhibition is greater than or equal to 0% and less than 25%)” and the “FAAH % inh. 5 mg/kg (mouse)” value (FAAH) was “D (% inhibition is greater than or equal to 0% and less than 25%)”.
For `O=C(O)c1ccn(C(=O)N2CC3CN(Cc4cc(Cl)cc(C(F)(F)F)c4)CC3C2)n1` (stereo not drawn) [Example 124, 1-(5-(3-chloro-5-(trifluoromethyl)benzyl)octahydro-pyrrolo[3,4-c]pyrrole-2-carbonyl)-1H-pyrazole-3-carboxylic acid], the “MAGL % inh. 5 mg/kg (mouse)” value (MAGL) was “D (% inhibition is greater than or equal to 0% and less than 25%)” and the “FAAH % inh. 5 mg/kg (mouse)” value (FAAH) was “C (% inhibition is greater than or equal to 25% and less than 50%)”.
With `Cc1cn(C(=O)N2CCC3(CCN(Cc4cc(Cl)ccc4C(F)(F)F)C3)CC2)nc1C(=O)O` [Example 130, 1-(2-(5-chloro-2-(trifluoromethyl)benzyl)-2,8-diazaspiro[4.5]decane-8-carbonyl)-4-methyl-1H-pyrazole-3-carboxylic acid] the “MAGL % inh. 5 mg/kg (mouse)” value (MAGL) was “D (% inhibition is greater than or equal to 0% and less than 25%)” and the “FAAH % inh. 5 mg/kg (mouse)” value (FAAH) was “D (% inhibition is greater than or equal to 0% and less than 25%)”.
`O=C(O)c1nn(C(=O)N2CCN(Cc3cccc(Oc4ccc(Cl)cc4)c3)CC2)cc1Cl` [Example 132, 4-chloro-1-(4-(3-(4-chlorophenoxy)benzyl)piperazine-1-carbonyl)-1H-pyrazole-3-carboxylic acid] was tested, and the “MAGL % inh. 5 mg/kg (mouse)” value (MAGL) was “D (% inhibition is greater than or equal to 0% and less than 25%)” and the “FAAH % inh. 5 mg/kg (mouse)” value (FAAH) was “D (% inhibition is greater than or equal to 0% and less than 25%)”.
With `O=C(O)c1nn(C(=O)N2CCC3(CCN(Cc4cc(Cl)ccc4C(F)(F)F)C3)CC2)cc1Cl` [Example 133, 4-chloro-1-(2-(5-chloro-2-(trifluoromethyl)benzyl)-2,8-diazaspiro[4.5]decane-8-carbonyl)-1H-pyrazole-3-carboxylic acid] the “MAGL % inh. 5 mg/kg (mouse)” value (MAGL) was “D (% inhibition is greater than or equal to 0% and less than 25%)” and the “FAAH % inh. 5 mg/kg (mouse)” value (FAAH) was “D (% inhibition is greater than or equal to 0% and less than 25%)”.
